Publication PMC6582486, “Stapled EGFR peptide reduces inflammatory breast cancer and inhibits additional HER-driven models of cancer” (Journal of Translational Medicine, 2019)
Where a SMILES comes first, the peptide text is derived from it. Bridges are numbered along the chain shown (N, C = ends). [ ]: non-standard residue; d: D form. R8 = C=CCCCCCC[C@@](C)(N)C(=O)O; S5 = C=CCCC[C@](C)(N)C(=O)O

Test: Plasma concentration after tail-vein injection (toxicokinetics);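 on SAH-EJ1 concentration in plasma: BQL means below the quantifiable limit of 0.5 µg/mL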
Assay type: in vivo, CD-1 mice
Description: Toxicology was performed by IITRI. The study was conducted in compliance with the US Food and Drug Administration (FDA) good laboratory practice (GLP) Regulations (Code of Federal Regulations Title 21 Part 58) to evaluate the toxicokinetics, local tolerability, immunogenicity, and potential toxicity of SAH5-EJ1 following three times per week intravenous (IV) dosing for 28 days in mice. Male and female CD-1 IGS [Crl:CD1(ICR)] mice (135 per sex) were received from Wilmington, MA-based Charles River Laboratories, Inc.’s Kingston facility (Stone Ridge, NY).

## CC[C@H](C)[C@H](NC(=O)[C@H](Cc1c[nH]cn1)NC(=O)[C@H](CCCNC(=N)N)NC(=O)[C@H](CCCNC(=N)N)NC(=O)[C@H](CCCNC(=N)N)NC(=O)[C@H](CCSC)NC(=O)[C@H](Cc1ccccc1)NC(=O)[C@H](C)NC(=O)[C@H](CCCNC(=N)N)NC(=O)[C@H](C)NC(=O)[C@H](CCC(N)=O)NC(=O)[C@H](CCCNC(=N)N)NC(=O)[C@H](C)NC(=O)[C@H](C)NC(=O)[C@H](C)NC(=O)[C@H](CCCNC(=N)N)NC(=O)[C@H](C)NC(=O)[C@@H](N)Cc1ccc(O)cc1)C(=O)N[C@H](C(=O)N[C@@H](CCCNC(=N)N)C(=O)N[C@@H](CCCCN)C(=O)N[C@@H](CCCNC(=N)N)C(=O)N[C@]1(C)CCCCCCC=CCCC[C@@](C)(C(=O)N[C@@H](CCCNC(=N)N)C(=O)N[C@@H](CCC(=O)O)C(N)=O)NC(=O)[C@H](CCC(N)=O)NC(=O)[C@H](CC(C)C)NC(=O)[C@H](CC(C)C)NC(=O)[C@H](CCCNC(=N)N)NC(=O)[C@H](CCCNC(=N)N)NC(=O)[C@H](CC(C)C)NC1=O)C(C)C [SAH5-EJ1] (H-YARAAARQARAFMRRRHIVRKR[R8]LRRLLQ[S5]RE-NH2; staple 23-30)
female, 15 mg/kg IV, day 1, 4 h, mouse 1 of 3
  SAH-EJ1 concentration in plasma: BQL (BQL represents below quantifiable limits (0.5 µg/mL))
female, 15 mg/kg IV, day 1, 4 h, mouse 2 of 3
  SAH-EJ1 concentration in plasma: BQL (BQL represents below quantifiable limits (0.5 µg/mL))
female, 15 mg/kg IV, day 1, 4 h, mouse 3 of 3
  SAH-EJ1 concentration in plasma: BQL (BQL represents below quantifiable limits (0.5 µg/mL))
female, 15 mg/kg IV, day 1, 8 h, mouse 1 of 3
  SAH-EJ1 concentration in plasma: BQL (BQL represents below quantifiable limits (0.5 µg/mL))
female, 15 mg/kg IV, day 1, 8 h, mouse 2 of 3
  SAH-EJ1 concentration in plasma: BQL (BQL represents below quantifiable limits (0.5 µg/mL))
female, 15 mg/kg IV, day 1, 8 h, mouse 3 of 3
  SAH-EJ1 concentration in plasma: BQL (BQL represents below quantifiable limits (0.5 µg/mL))
female, 15 mg/kg IV, day 1, 24 h, mouse 1 of 3
  SAH-EJ1 concentration in plasma: BQL (BQL represents below quantifiable limits (0.5 µg/mL))
female, 15 mg/kg IV, day 1, 24 h, mouse 2 of 3
  SAH-EJ1 concentration in plasma: BQL (BQL represents below quantifiable limits (0.5 µg/mL))
female, 15 mg/kg IV, day 1, 24 h, mouse 3 of 3
  SAH-EJ1 concentration in plasma: BQL (BQL represents below quantifiable limits (0.5 µg/mL))
Male mice, highest body weight dosage
  time by which peptide was not detectable in plasma: ≤ 4 h
male, 5 mg/kg IV, day 1, 1 h, mouse 3 of 3
  SAH-EJ1 concentration in plasma: BQL (BQL represents below quantifiable limits (0.5 µg/mL))
male, 5 mg/kg IV, day 1, 2 h, mouse 1 of 3
  SAH-EJ1 concentration in plasma: BQL (BQL represents below quantifiable limits (0.5 µg/mL))
male, 5 mg/kg IV, day 1, 2 h, mouse 2 of 3
  SAH-EJ1 concentration in plasma: BQL (BQL represents below quantifiable limits (0.5 µg/mL))
male, 5 mg/kg IV, day 1, 2 h, mouse 3 of 3
  SAH-EJ1 concentration in plasma: BQL (BQL represents below quantifiable limits (0.5 µg/mL))
male, 5 mg/kg IV, day 1, 4 h, mouse 1 of 3
  SAH-EJ1 concentration in plasma: BQL (BQL represents below quantifiable limits (0.5 µg/mL))
male, 5 mg/kg IV, day 1, 4 h, mouse 2 of 3
  SAH-EJ1 concentration in plasma: BQL (BQL represents below quantifiable limits (0.5 µg/mL))
male, 5 mg/kg IV, day 1, 4 h, mouse 3 of 3
  SAH-EJ1 concentration in plasma: BQL (BQL represents below quantifiable limits (0.5 µg/mL))
male, 5 mg/kg IV, day 1, 8 h, mouse 1 of 3
  SAH-EJ1 concentration in plasma: BQL (BQL represents below quantifiable limits (0.5 µg/mL))
male, 5 mg/kg IV, day 1, 8 h, mouse 2 of 3
  SAH-EJ1 concentration in plasma: BQL (BQL represents below quantifiable limits (0.5 µg/mL))
male, 5 mg/kg IV, day 1, 8 h, mouse 3 of 3
  SAH-EJ1 concentration in plasma: BQL (BQL represents below quantifiable limits (0.5 µg/mL))
male, 5 mg/kg IV, day 1, 24 h, mouse 1 of 3
  SAH-EJ1 concentration in plasma: BQL (BQL represents below quantifiable limits (0.5 µg/mL))
male, 5 mg/kg IV, day 1, 24 h, mouse 2 of 3
  SAH-EJ1 concentration in plasma: BQL (BQL represents below quantifiable limits (0.5 µg/mL))
male, 5 mg/kg IV, day 1, 24 h, mouse 3 of 3
  SAH-EJ1 concentration in plasma: BQL (BQL represents below quantifiable limits (0.5 µg/mL))
male, 10 mg/kg IV, day 1, 2 h, mouse 1 of 3
  SAH-EJ1 concentration in plasma: BQL (BQL represents below quantifiable limits (0.5 µg/mL))
male, 10 mg/kg IV, day 1, 2 h, mouse 2 of 3
  SAH-EJ1 concentration in plasma: BQL (BQL represents below quantifiable limits (0.5 µg/mL))
male, 10 mg/kg IV, day 1, 2 h, mouse 3 of 3
  SAH-EJ1 concentration in plasma: BQL (BQL represents below quantifiable limits (0.5 µg/mL))
male, 10 mg/kg IV, day 1, 4 h, mouse 1 of 3
  SAH-EJ1 concentration in plasma: BQL (BQL represents below quantifiable limits (0.5 µg/mL))
male, 10 mg/kg IV, day 1, 4 h, mouse 2 of 3
  SAH-EJ1 concentration in plasma: BQL (BQL represents below quantifiable limits (0.5 µg/mL))
male, 10 mg/kg IV, day 1, 4 h, mouse 3 of 3
  SAH-EJ1 concentration in plasma: BQL (BQL represents below quantifiable limits (0.5 µg/mL))
male, 10 mg/kg IV, day 1, 8 h, mouse 1 of 3
  SAH-EJ1 concentration in plasma: BQL (BQL represents below quantifiable limits (0.5 µg/mL))
male, 10 mg/kg IV, day 1, 8 h, mouse 2 of 3
  SAH-EJ1 concentration in plasma: BQL (BQL represents below quantifiable limits (0.5 µg/mL))
male, 10 mg/kg IV, day 1, 8 h, mouse 3 of 3
  SAH-EJ1 concentration in plasma: BQL (BQL represents below quantifiable limits (0.5 µg/mL))
male, 10 mg/kg IV, day 1, 24 h, mouse 1 of 3
  SAH-EJ1 concentration in plasma: BQL (BQL represents below quantifiable limits (0.5 µg/mL))
male, 10 mg/kg IV, day 1, 24 h, mouse 2 of 3
  SAH-EJ1 concentration in plasma: BQL (BQL represents below quantifiable limits (0.5 µg/mL))
male, 10 mg/kg IV, day 1, 24 h, mouse 3 of 3
  SAH-EJ1 concentration in plasma: BQL (BQL represents below quantifiable limits (0.5 µg/mL))
male, 15 mg/kg IV, day 1, 1 h, mouse 1 of 3
  SAH-EJ1 concentration in plasma: BQL (BQL represents below quantifiable limits (0.5 µg/mL))
male, 15 mg/kg IV, day 1, 2 h, mouse 1 of 3
  SAH-EJ1 concentration in plasma: BQL (BQL represents below quantifiable limits (0.5 µg/mL))
male, 15 mg/kg IV, day 1, 2 h, mouse 3 of 3
  SAH-EJ1 concentration in plasma: BQL (BQL represents below quantifiable limits (0.5 µg/mL))
male, 15 mg/kg IV, day 1, 4 h, mouse 1 of 3
  SAH-EJ1 concentration in plasma: BQL (BQL represents below quantifiable limits (0.5 µg/mL))
male, 15 mg/kg IV, day 1, 4 h, mouse 2 of 3
  SAH-EJ1 concentration in plasma: BQL (BQL represents below quantifiable limits (0.5 µg/mL))
male, 15 mg/kg IV, day 1, 4 h, mouse 3 of 3
  SAH-EJ1 concentration in plasma: BQL (BQL represents below quantifiable limits (0.5 µg/mL))
male, 15 mg/kg IV, day 1, 8 h, mouse 1 of 3
  SAH-EJ1 concentration in plasma: BQL (BQL represents below quantifiable limits (0.5 µg/mL))
male, 15 mg/kg IV, day 1, 8 h, mouse 2 of 3
  SAH-EJ1 concentration in plasma: BQL (BQL represents below quantifiable limits (0.5 µg/mL))
male, 15 mg/kg IV, day 1, 8 h, mouse 3 of 3
  SAH-EJ1 concentration in plasma: BQL (BQL represents below quantifiable limits (0.5 µg/mL))
male, 15 mg/kg IV, day 1, 24 h, mouse 1 of 3
  SAH-EJ1 concentration in plasma: BQL (BQL represents below quantifiable limits (0.5 µg/mL))
male, 15 mg/kg IV, day 1, 24 h, mouse 2 of 3
  SAH-EJ1 concentration in plasma: BQL (BQL represents below quantifiable limits (0.5 µg/mL))
male, 15 mg/kg IV, day 1, 24 h, mouse 3 of 3
  SAH-EJ1 concentration in plasma: BQL (BQL represents below quantifiable limits (0.5 µg/mL))
